Experimental data taken from US8841277B2, “Methods for treating non-small cell lung cancer using 5-azacytidine” (Celgene Corporation, priority 2009, dated 2014).
“Also recorded” adds a separate entry of the source. Read-outs that look alike come from different tables or passages of the source.

Columns and labels:
Format in all cases: cell-based
[1] = test system: H1975 cells; experiment: Cell viability (CyQuant assay), H1975; settings: 72 hours; for HillSlope / LogIC50 / IC50: H1975 viability, best-fit value; for EC50 / IC50: Homo sapiens, NCI-H1975; for EC50: H1975, read-out: EC50 of effect on viability
Description: (§1) Certain NSCLC cell lines (H460, H1299, A549, and H1975) were purchased from American Type Culture Collection (ATCC; Manassas, Va.). The H23NSCLC cell line was obtained from the National Cancer Institute (NCI; Bethesda, Md.). Cell lines were cultured in their respective media, as recommended by ATCC and NCI. AZA was manufactured at Aptuit (Greenwich, Conn.) for Celgene (Summit, N.J.), while DAC was purchased from Sigma-Aldrich (St. Louis, Mo.). In all experiments, cells were seeded 24 hours before drug treatment and incubated at 37° C./5% CO2, For cell viability assays, H460, H1299, A549, H23, and H1975 cells were seeded in triplicate at 1×10^3, 1×10^3, 1×10^3, 4×10^3, and 4×10^3 cells per well, respectively, in 96-well plates, using 200 μL of medium per well. Fresh drug was added every 24 hours by replacing medium with drug-containing medium. For all other assays, cells were seeded at 0.6-1.2×10^5 cells per well, in 6-well plates, using 4 mL of medium per well, with fresh drug added directly to the medium every 24 hours.
(§2) Cell viability was assessed using the CyQuant assay (Life Technologies Corporation; Carlsbad, Calif.). Fluorescence was measured with a spectrophotometer (Molecular Devices; Sunnyvale, Calif.), and EC50 values were calculated in Prism® version 5.01 (GraphPad Software, Inc.; La Jolla, Calif.), using results from three independent experiments.
(§3) The six data sets represent calculations of EC50 values from raw data using Prism®. The standard deviation among the three independent experiments was determined at each drug concentration. For some of the cell lines, Prism® was not able to calculate the EC50 for DAC. For those curves that an EC50 was available, the SE (Std. Error) was acceptable (SE of the logEC50 should be less than 0.5), meaning that the standard errors were not too large. The 95% Confidence Intervals for the EC50 were considered as a measure of error.

[2] = test system: H23 cells; experiment: Cell viability (CyQuant assay), H23; settings: 72 hours; for HillSlope / LogIC50 / IC50: H23 viability, best-fit value; for EC50 / IC50: Homo sapiens, NCI-H23; for EC50: H23, read-out: EC50 of effect on viability
Description: as §1, §2, §3

[3] = test system: H460 cells; experiment: Cell viability (CyQuant assay), H460; settings: for HillSlope / LogIC50 / IC50: H460 viability, best-fit value
Description: as §1, §2, §3

[4] = test system: NSCLC cell lines; experiment: Cell viability dose-response profiles, all cell lines; settings: 72 hours; dose range
Description: as §1, with “For all other assays, cells were seeded at 0.6-1.2×10^5 cells per well, in 6-well plates, using 4 mL of medium per well, with fresh drug added directly to the medium every 24 hours.” left out
as §2
The six data sets represent calculations of EC50 values from raw data using Prism®. The standard deviation among the three independent experiments was determined at each drug concentration. […]

[5] = test system: A549 cells; experiment: Cell cycle distribution (NIM-DAPI), A549
Description: (§4) These studies examined the cell cycle distribution of NSCLC cells treated with AZA or DAC using NIM-DAPI analysis.
(§5) For cell cycle distribution, cells were stained with the NIM-DAPI reagent (Beckman Coulter, Inc.; Fullerton, Calif.). For measurement of early- and late-apoptotic cell populations, cells were stained with AnnexinV-FITC and 7-AAD reagents (Beckman Coulter, Inc.). Samples were processed according to manufacturer's instructions and analyzed on a Cell Lab Quanta MPL flow cytometer (Beckman Coulter, Inc.). […] Data were also collected for untreated cells as control.

[6] = test system: H1299 cells; experiment: Cell cycle distribution (NIM-DAPI), H1299
Description: as §4, §5

[7] = test system: A549 cells; experiment: Western analysis of DNA damage and apoptosis markers, A549; settings: for Induction of Histone H2AX phosphorylation (marker of DNA damage) / Induction of PARP cleavage (marker of apoptosis): 0.3-10 μM, 24 h to 72 h (3 days)
Description: (§6) These studies also examined apoptosis using an assay for PARP cleavage. Cells studied included H460, A549, and H1299 cells.
(§7) For western analyses of protein levels, cells were washed with PBS and lysed with RIPA buffer (Cell Signaling Technology, Inc.; Danvers, Mass.) containing 350 mM NaCl and 0.1% SDS. Cell lysates were sonicated with two 5-second bursts under low amplitude (20%) using the Digital Sonic Dismembrator (Thermo Fisher Scientific, Inc.; Waltham, Mass.). Proteins were separated on 4-12% Bis-Tris NuPAGE gels (Life Technologies Corporation) and transferred to nitrocellulose membranes. DNMT1, phos-Histone-H2AX(Ser139), total Histone-H2AX, cleaved-PARP, p21, p53, and alpha-tubulin were detected using the Li-Cor Odyssey imaging system (Li-Cor Biotechnology; Lincoln, Nebr.), following incubation with the appropriate primary and secondary antibodies. The phos-Histone-H2AX(Ser139), cleaved-PARP, and p21 antibodies were from Cell Signaling Technology, Inc. The p53 and total Histone-H2AX (C-20) antibodies were from Santa Cruz Biotechnology, Inc. (Santa Cruz, Calif.). The alpha-tubulin and DNMT1 antibodies were purchased from EMD Chemicals, Inc. (Gibbstown, N.J.) and Abcam, Inc. (Cambridge, Mass.), respectively. The goat anti-Rabbit IRDye 680, goat anti-Mouse IRDye 800CW, and donkey anti-Goat IRDye 800CW secondary antibodies were from Li-Cor Biotechnology.

[8] = test system: H460 cells; experiment: Western analysis of DNA damage and apoptosis markers, H460; settings: for Induction of Histone H2AX phosphorylation / Induction of PARP cleavage: 0.3-10 μM; for Induction of Histone H2AX phosphorylation: 24 h, 48 h, up to 72 hour
Description: as §6, §7

[9] = test system: DNMT1; experiment: DNMT1 protein depletion, H460; settings: for DNMT1 protein levels: dose range
Description: as §7
Reduced DNMT1 levels were detected in these cell lines as early as 4 hours after drug treatment (FIG. 17).

[10] = Homo sapiens, NCI-H460, 72 hours

Nc1ncn([C@@H]2O[C@H](CO)[C@@H](O)[C@H]2O)c(=O)n1 [AZA, 4-amino-1-β-D-ribofuranosyl-1,3,5-triazin-2(1H)-one]
HillSlope [1]: −0.6352
LogIC50 [1]: 0.8897
EC50 [1]: 7.8 µM
IC50 [1]: 7.76 µM
HillSlope [2]: −1.054
LogIC50 [2]: 1.005
EC50 [2]: 10.1 µM
IC50 [2]: 10.1 µM
EC50 ([3]; H460, 72 hours, read-out: EC50 of effect on viability): 1.7 µM
HillSlope ([3]; 72 hours): −0.8940
LogIC50 ([3]; 72 hours): 0.2413
EC50 ([3]; Homo sapiens, NCI-H460, 72 h, H460, read-out: EC50 of effect on viability): 1.24 µM
IC50 [3, 10]: 1.74 µM
Viability profile at high doses [4]: cytotoxic activities at high doses
Cell cycle distribution (NIM DAPI) ([5]; 48-hour treatment, 0.3-10 μM): induced accumulation of cells in G2/M and Sub-G1
Cell cycle distribution (NIM DAPI) ([5]; 72-hour treatment, 0.3-10 μM): induced accumulation of cells in G2/M and Sub-G1
Cell cycle distribution (NIM DAPI) ([5]; summary of studies): induced accumulation of cells in G2/M and Sub-G1
Cell cycle distribution (NIM DAPI) ([6]; 72-hour treatment, 0.3-10 μM): induced accumulation of cells in G2/M and Sub-G1
Cell cycle distribution (NIM DAPI) ([6]; summary of studies): induced accumulation of cells in Sub-G1
Induction of Histone H2AX phosphorylation (marker of DNA damage) [7]: induced
Induction of PARP cleavage (marker of apoptosis) [7]: induced
Concentrations affecting Histone H2AX phosphorylation and PARP cleavage [8]: above 1 μM
Induction of Histone H2AX phosphorylation [8]: induced
Induction of PARP cleavage ([8]; 24 h and 48 h): induced
DNMT1 protein levels ([9]; 20 hours): significantly reduced

Nc1ncn([C@H]2C[C@H](O)[C@@H](CO)O2)c(=O)n1 [DAC, 5-aza-2′-deoxycytidine]
HillSlope [1]: −0.2958
LogIC50 [1]: 2.452
EC50 [1]: > 25 µM
IC50 [1]: 283 µM
HillSlope [2]: −0.3790
LogIC50 [2]: 1.268
EC50 [2]: 18.5 µM
IC50 [2]: 18.5 µM
HillSlope ([3]; 72 hours): −0.3814
LogIC50 ([3]; 72 hours): 2.053
EC50 ([3]; Homo sapiens, NCI-H460, H460, 72 hours, read-out: EC50 of effect on viability): > 25 µM
IC50 [3, 10]: 113 µM
Viability profile at high doses [4]: cytostatic activity at high doses
Cell cycle distribution (NIM DAPI) ([5]; 48-hour treatment, 0.3-10 μM): induced an increase of cells in G2/M
Cell cycle distribution (NIM DAPI) ([5]; 72-hour treatment, 0.3-10 μM): induced an increase of cells in G2/M
Cell cycle distribution (NIM DAPI) ([5]; summary of studies): induced an increase of cells in G2/M
Cell cycle distribution (NIM DAPI) ([6]; 48-hour treatment, 0.3-10 μM): induced accumulation of cells in G2/M
Cell cycle distribution (NIM DAPI) ([6]; 72-hour treatment, 0.3-10 μM): induced accumulation of cells in G2/M and Sub-G1; also recorded: induced accumulation of cells in Sub-G1 while DAC also caused an increase of cells in G2/M
Cell cycle distribution (NIM DAPI) ([6]; summary of studies): induced accumulation of cells in Sub-G1 while DAC also caused an increase of cells in G2/M
Induction of Histone H2AX phosphorylation (marker of DNA damage) [7]: did not have any effect and not
Induction of PARP cleavage (marker of apoptosis) [7]: did not have any effect and not
p21 expression ([7]; 24 h and 48 h): induce
p53 expression ([7]; 24 h and 48 h): induce
Induction of Histone H2AX phosphorylation ([7]; 6 days of treatment): lack of induction
Induction of PARP cleavage ([7]; 6 days of treatment): lack of induction
Induction of Histone H2AX phosphorylation [8]: did not have any effect
Induction of PARP cleavage ([8]; 24 h and 48 h): did not have any effect
p21 expression ([8]; 24 h and 48 h, dose-dependent): induce
p53 expression ([8]; 24 h and 48 h, dose-dependent): induce
DNMT1 depletion ([9]; 0.3-10 μM, 24 h and 48 h (Example 5)): able to cause DNMT1 depletion
Relative potency in reducing DNMT1 levels ([9]; 20 hours): equipotent
DNMT1 protein levels ([9]; 20 hours): significantly reduced
